Experimental data: ChEMBL document CHEMBL1137319, “Thyroid receptor ligands. 6. A high affinity "direct antagonist" selective for the thyroid hormone receptor” (J Med Chem, 2006)

Key:
[1] = target: T1, Thyroid hormone receptor alpha (Homo sapiens, UniProt P10827); assay: Activity at human TR-alpha-1 transfected in CHO K1 cells by alkaline phosphatase reporter gene assay
T1 sequence (P10827 whole entry): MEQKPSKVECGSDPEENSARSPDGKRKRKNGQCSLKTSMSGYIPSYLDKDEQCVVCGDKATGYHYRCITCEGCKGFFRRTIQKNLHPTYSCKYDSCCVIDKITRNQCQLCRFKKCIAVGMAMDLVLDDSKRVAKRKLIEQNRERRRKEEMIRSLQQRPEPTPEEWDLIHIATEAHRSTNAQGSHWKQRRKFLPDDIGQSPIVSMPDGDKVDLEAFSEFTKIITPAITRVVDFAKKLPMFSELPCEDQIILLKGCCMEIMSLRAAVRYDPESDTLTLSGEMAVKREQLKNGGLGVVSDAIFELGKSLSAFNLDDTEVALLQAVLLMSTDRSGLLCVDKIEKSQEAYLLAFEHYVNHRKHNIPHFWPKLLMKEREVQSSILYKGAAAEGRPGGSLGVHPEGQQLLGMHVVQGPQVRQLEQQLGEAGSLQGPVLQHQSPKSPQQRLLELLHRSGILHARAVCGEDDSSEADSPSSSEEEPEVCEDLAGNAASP

[2] = system: Rattus norvegicus; assay: Increase in LDL cholesterol level in orally dosed cholesterol-fed Sprague-Dawley rat relative to control; type: functional
[3] = target: T2, Thyroid hormone receptor beta (Homo sapiens, UniProt P10828); assay: Activity at human TR-beta-1 transfected in CHO K1 cells by alkaline phosphatase reporter gene assay
T2 sequence (P10828 whole entry): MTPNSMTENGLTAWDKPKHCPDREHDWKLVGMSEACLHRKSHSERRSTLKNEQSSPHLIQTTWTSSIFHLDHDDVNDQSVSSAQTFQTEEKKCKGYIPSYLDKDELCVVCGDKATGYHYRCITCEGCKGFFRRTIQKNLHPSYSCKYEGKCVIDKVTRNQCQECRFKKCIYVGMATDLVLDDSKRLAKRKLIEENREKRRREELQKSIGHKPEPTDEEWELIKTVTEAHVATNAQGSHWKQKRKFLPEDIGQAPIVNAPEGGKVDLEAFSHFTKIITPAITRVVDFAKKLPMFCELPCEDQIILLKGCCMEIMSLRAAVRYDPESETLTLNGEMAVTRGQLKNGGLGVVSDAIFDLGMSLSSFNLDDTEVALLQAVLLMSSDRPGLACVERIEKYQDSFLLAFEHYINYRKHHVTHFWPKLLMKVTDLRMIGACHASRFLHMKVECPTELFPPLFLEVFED

[4] = target: T1, Thyroid hormone receptor alpha; assay: Binding affinity to human TRalpha1
[5] = target: T2, Thyroid hormone receptor beta; assay: Binding affinity to human TRbeta1
[6] = system: Rattus norvegicus; assay: Decrease in heart rate in orally dosed cholesterol-fed Sprague-Dawley rat relative to control; type: functional; set-up: scale not given: the % may be the effect or the level left

SMILES | IC50 [1] [nM] | Activity [2] [%] | IC50 [3] [nM] | IC50 [4] [nM] | IC50 [5] [nM] | Activity [6] [%]
CC(C)c1cc(Oc2c(Br)cc(CCC(=O)O)cc2Br)cc(/C=C/c2ccncc2)c1O | 32 | 13 | 32 | 36 | 22 | -10
O=C(O)CCc1ccccc1OCC1C(Br)CCCC1Br (stereo not drawn) |  |  |  | 460 | 190 | 
